US11338007B2, “Combination formulation of three antiviral compounds” (priority 2016, dated 2022)

Assays:
HCV RNA = experiment: Emax PK/PD modeling of sofosbuvir dose (HCV RNA change from baseline); type: in vivo, human; conditions: mean major metabolite AUCtau for 400 mg dose
Description: The sofosbuvir dose selected for the tablet formulation is 400 mg once daily. Support for the 400 mg sofosbuvir dose can be derived from Emax PK/PD modeling with early virological and human exposure data which also supports the selection of a 400 mg sofosbuvir dose over others tested.
The mean sofosbuvir major metabolite AUCtau for the 400 mg sofosbuvir dose is associated with approximately 77% of the maximal HCV RNA change from baseline achievable as determined by this model, a value which is on the cusp of the plateau of the exposure-response sigmoidal curve. In a sigmoidal Emax model, there is a relatively linear exposure-response relationship in the 20 to 80% maximal effect range. Therefore, given that sofosbuvir exposure with 200 mg tablets appears dose-proportional with single doses up to 1200 mg, doses below 400 mg are expected to yield considerable reductions in the magnitude of HCV RNA change from baseline.

[1] = Solid-state compatibility of sofosbuvir/velpatasvir SSD/voxilaprevir SSD granules (Table 7); type: physicochemical; conditions: for LS / Total Imp./Deg. Products: granules Lot F
Description: Sofosbuvir, velpatasvir SSD, and voxilaprevir SSD are chemically and physically compatible in the solid-state. The solid-state compatibility of sofosbuvir, velpatasvir SSD, and voxilaprevir SSD was evaluated by preparing a powder blend composed of 49.75% w/w sofosbuvir, 24.88% w/w of velpatasvir SSD, and 24.88% w/w of voxilaprevir SSD, and 0.25% w/w magnesium stearate (added as a lubricant). The powder blend was dry granulated using a roller compactor and then milled. The resulting granules (Lot F) contained 400 mg of sofosbuvir, 100 mg velpatasvir (as 200 mg velpatasvir SSD), and 100 mg voxilaprevir (as 200 mg voxilaprevir SSD) equivalent to the relative compositions in the sofosbuvir/velpatasvir/voxilaprevir tablet: 400/100/100 mg.
The chemical and physical stability of sofosbuvir/velpatasvir SSD/voxilaprevir SSD granules, packaged in glass vials (protected from light), was evaluated for 6 months at 25° C./60% RH and 40° C./75% RH under open and closed conditions. As summarized in Table 7, sofosbuvir, velpatasvir, and voxilaprevir were chemically stable with no increase in total impurities/degradation products of sofosbuvir (remaining at 0.0%), velpatasvir (remaining between 0.4 and 0.5%), and voxilaprevir (remaining between 1.1 and 1.4%) after a 6 month storage period. No upward trend in the content of degradation products was observed over the time period studied.

[2] = Tablet dissolution, 50 mM sodium acetate buffer pH 5.0 with 2.0% w/v Polysorbate 80, USP Type II, 75 rpm; type: physicochemical
Description: FIGS. 10-12 depict additional dissolution profiles for the sofosbuvir/velpatasvir SSD/voxilaprevir SSD tablets having the formulation described in Table 13 and which were used in phase 1, 2, and 3 clinical studies, where the dissolution testing was conducted at pH 5.0 acetate buffer containing 2.0% w/v polysorbate 80. Four batches of the sofosbuvir/velpatasvir SSD/voxilaprevir SSD tablets were tested, with Batch A manufactured at 100 kg and Batches B, C and D manufactured at 145 kg. All other aspects of the formulation and manufacturing process were otherwise equivalent. […] Moreover, for Batch A, the amount dissolved at 30 min remained between 98 and 100% for sofosbuvir, between 90 and 92% for velpatasvir SSD, and between 89 and 93% for voxilaprevir SSD. […] For Batch D, the amount dissolved at 30 min remained at 100% for sofosbuvir, between 90 and 91% for velpatasvir SSD, and between 89 and 91% for voxilaprevir SSD. Release of velpatasvir SSD and voxilaprevir SSD from the sofosbuvir/velpatasvir SSD/voxilaprevir SSD tablets associated with all four Batches was complete after 60 minutes.

[3] = BCS classification and pH dependence of solubility; type: physicochemical
[4] = 25° C./60% RH (Closed), 3 months
[5] = 25° C./60% RH (Closed), 6 months
[6] = 40° C./75% RH (Closed), 1 month
[7] = 40° C./75% RH (Closed), 3 months
[8] = 40° C./75% RH (Closed), 6 months

CC(C)OC(=O)C(C)N[P@](=O)(OC[C@H]1O[C@@H](n2ccc(=O)[nH]c2=O)[C@](C)(F)[C@@H]1O)Oc1ccccc1 (stereo in doubt) [sofosbuvir, (S)-isopropyl 2-(((S)-(((2R,3R,4R,5R)-5-(2,4-dioxo-3,4-dihydropyrimidin-1(2H)-yl)-4-fluoro-3-hydroxy-4-methyltetrahydrofuran-2-yl)methoxy)(phenoxy)phosphoryl)amino)propanoate]
maximal HCV RNA change from baseline achievable (Emax model) (HCV RNA): approximately 77%
LS [1, 4]: 101.1%
Total Imp./Deg. Products [1, 4]: 0.0%
LS [1, 5]: 99.1%
Total Imp./Deg. Products [1, 5]: 0.0%
LS [1, 6]: 99.5%
Total Imp./Deg. Products [1, 6]: 0.0%
LS [1, 7]: 99.4%
Total Imp./Deg. Products [1, 7]: 0.0%
LS [1, 8]: 97.2%
Total Imp./Deg. Products [1, 8]: 0.0%
LS ([1]; 40° C./75% RH (Open), 1 month): 101.3%
Total Imp./Deg. Products ([1]; 40° C./75% RH (Open), 1 month): 0.0%
LS ([1]; 40° C./75% RH (Open), 3 months): 98.5%
Total Imp./Deg. Products ([1]; 40° C./75% RH (Open), 3 months): 0.0%
LS ([1]; 40° C./75% RH (Open), 6 months): 95.6%
Total Imp./Deg. Products ([1]; 40° C./75% RH (Open), 6 months): 0.0%
LS ([1]; Initial, 0 months): 103.5%
Total Imp./Deg. Products ([1]; Initial, 0 months): 0.0%
total impurities/degradation products ([1]; granules, over 6 month storage at 25° C./60% RH and 40° C./75% RH, open and closed): 0.0%
Dissolved at 30 min ([2]; Batch A, 25° C./60% RH, 3 months): 98%
Dissolved at 30 min ([2]; Batch A, 25° C./60% RH, 6 months): 98%
Dissolved at 30 min ([2]; Batch A, 30° C./75% RH, 3 months): 98%
Dissolved at 30 min ([2]; Batch A, 30° C./75% RH, 6 months): 100%
Dissolved at 30 min ([2]; Batch A, 40° C./75% RH, 1 month): 98%
Dissolved at 30 min ([2]; Batch A, 40° C./75% RH, 3 months): 99%
Dissolved at 30 min ([2]; Batch A, 40° C./75% RH, 6 months): 100%
Dissolved at 30 min ([2]; Batch A, Initial): 98%
Dissolved at 30 min ([2]; Batch B, 25° C./60% RH, 3 months): 99%
Dissolved at 30 min ([2]; Batch B, 25° C./60% RH, 6 months): 99%
Dissolved at 30 min ([2]; Batch B, 30° C./75% RH, 3 months): 99%
Dissolved at 30 min ([2]; Batch B, 30° C./75% RH, 6 months): 99%
Dissolved at 30 min ([2]; Batch B, 40° C./75% RH, 1 month): 100%
Dissolved at 30 min ([2]; Batch B, 40° C./75% RH, 3 months): 100%
Dissolved at 30 min ([2]; Batch B, 40° C./75% RH, 6 months): 98%
Dissolved at 30 min ([2]; Batch B, Initial): 99%
amount dissolved at 30 min ([2]; Batch D): 100%
Dissolved at 30 min ([2]; Batch D, 40° C./75% RH, 1 month): 100%
Dissolved at 30 min ([2]; Batch D, Initial): 100%
dissolution at 30 minutes ([2]; potency study Lot B, after 4 weeks open at 40° C./75% RH): 100%
release at 30 minutes ([2]; tablet Lots A and B with different sofosbuvir particle size): 101%
Dissolved at 30 min (%) ([2]; tablets Batch C, 1 g desiccant, 25° C./60% RH, 3 months): 101%
Dissolved at 30 min (%) ([2]; tablets Batch C, 1 g desiccant, 25° C./60% RH, 6 months): 99%
Dissolved at 30 min (%) ([2]; tablets Batch C, 1 g desiccant, 30° C./75% RH, 3 months): 99%
Dissolved at 30 min (%) ([2]; tablets Batch C, 1 g desiccant, 30° C./75% RH, 6 months): 99%
Dissolved at 30 min (%) ([2]; tablets Batch C, 1 g desiccant, 40° C./75% RH, 1 month): 100%
Dissolved at 30 min (%) ([2]; tablets Batch C, 1 g desiccant, 40° C./75% RH, 3 months): 100%
Dissolved at 30 min (%) ([2]; tablets Batch C, 1 g desiccant, 40° C./75% RH, 6 months): 99%
Dissolved at 30 min (%) ([2]; tablets Batch C, 1 g desiccant, Initial, time 0): 99%
Dissolved at 30 min (%) ([2]; tablets from VEL SSD 7.0% water, VOX SSD 3.2% water, Initial, time 0): 100%
BCS Class [3]: BCS Class 3
aqueous solubility, pH dependence [3]: high and pH-independent
